{
  "source": "patent KR20230138688A",
  "about": "“Halenaquinol sulfate를 유효성분으로 포함하는 베타아밀로이드 응집으로 유발되는 질환의 예방 또는 치료용 약학적 조성물” (priority 2022, dated 2023)",
  "key": {"[1]": {"target": "T1, beta-amyloid Aβ42 (베타아밀로이드(Aβ)42) (Homo sapiens, UniProt P05067)", "T1 construct": "Amyloid β 1-42 (Aβ42) 단백질은 DMSO에 1 mM으로 녹여", "T1 sequence (P05067 672-713)": "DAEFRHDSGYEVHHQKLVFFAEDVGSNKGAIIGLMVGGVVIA", "assay": "Inhibition of beta-amyloid (Aβ42) aggregation, Thioflavin T fluorescence", "assay_type": "biochemical", "settings": "Aβ42 10 μM; 37 °C, 24 h; ThT 45 μM; 485 nm / 528 nm"}, "[2]": {"target": "T2, beta-amyloid Aβ42 aggregates (베타아밀로이드 응집체) (Homo sapiens, UniProt P05067)", "T2 construct": "Amyloid β 1-42 (Aβ42) 단백질은 DMSO에 1 mM으로 녹여", "T2 sequence (P05067 672-713)": "as above", "assay": "Disaggregation of preformed beta-amyloid (Aβ42) aggregates, Thioflavin T fluorescence", "assay_type": "biochemical", "settings": "Aβ42 pre-incubated 24 h, then 24 h with compound at 37 °C; Aβ42 10 μM; ThT 45 μM"}, "[3]": {"target": "Acetylcholinesterase (AChE) (Electrophorus electricus, UniProt O42275)", "sequence (O42275 whole entry)": "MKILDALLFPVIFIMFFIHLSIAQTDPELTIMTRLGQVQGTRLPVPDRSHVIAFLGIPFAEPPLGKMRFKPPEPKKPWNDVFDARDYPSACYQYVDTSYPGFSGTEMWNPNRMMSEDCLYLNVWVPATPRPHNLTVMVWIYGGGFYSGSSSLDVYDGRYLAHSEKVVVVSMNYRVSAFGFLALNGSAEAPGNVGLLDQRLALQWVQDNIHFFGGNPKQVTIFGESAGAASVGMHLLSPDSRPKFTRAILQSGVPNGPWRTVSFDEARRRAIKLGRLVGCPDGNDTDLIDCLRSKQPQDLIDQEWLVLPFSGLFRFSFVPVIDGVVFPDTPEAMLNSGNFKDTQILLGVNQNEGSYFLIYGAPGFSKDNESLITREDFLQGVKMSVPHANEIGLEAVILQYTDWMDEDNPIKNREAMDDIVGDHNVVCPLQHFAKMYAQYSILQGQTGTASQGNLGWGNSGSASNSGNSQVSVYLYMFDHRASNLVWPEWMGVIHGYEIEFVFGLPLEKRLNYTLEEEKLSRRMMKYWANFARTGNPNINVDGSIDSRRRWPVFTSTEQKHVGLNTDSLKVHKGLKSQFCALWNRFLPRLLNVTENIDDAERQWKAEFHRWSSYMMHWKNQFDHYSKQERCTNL", "assay": "Acetylcholinesterase (AChE) inhibition, Ellman method", "assay_type": "biochemical", "settings": "acetylthiocholine substrate, DTNB, 405 nm, pH 8.2"}, "[4]": {"tested_on": "inhibition of synaptic plasticity (LTP) by beta-amyloid (베타아밀로이드에 의한 시냅스 가소성(LTP) 억제)", "assay": "Improvement of beta-amyloid-induced inhibition of synaptic plasticity (LTP), electrophysiology in hippocampal slices", "settings": "ICR mouse hippocampal slices; halenaquinol sulfate 10 μM 30 min, then with oligomeric beta-amyloid 1 μM for 2 h; HFS"}},
  "note": "pIC50: −log10 of the molar value.",
  "data": [
    {"substance": "Halenaquinol sulfate", "values": [
      {"measurement": "inhibitory activity against beta-amyloid aggregation", "setting": "[1]", "result": "농도 의존적으로 베타아밀로이드(10 μM)의 응집에 대해 저해활성"},
      {"measurement": "disaggregation of already aggregated beta-amyloid", "setting": "[2]", "result": "농도 의존적으로 이미 응집된 베타아밀로이드 응집체를 분해함"},
      {"measurement": "pIC50", "setting": "[3]", "result": 4.75},
      {"measurement": "inhibition of acetylcholinesterase activity", "setting": "[3]", "result": "농도의존적으로 acetylcholinesterase 활성을 저해"},
      {"measurement": "suppression of the effect of oligomeric beta-amyloid on LTP", "setting": "[4]", "result": "베타아밀로이드의 효과를 유의적으로 억제"}
    ]}
  ]
}
